Here are results for two molecules from US7202081B2, “Simultaneous determination of cell proliferation inhibition activity and toxicity” (Hoffmann-La Roche Inc., priority 2003, dated 2007).

As usually defined, the pIC50 is −log10 of the IC50, conventionally taken in molar units. The IC50 is the concentration that inhibits the measured activity by half.

This series relates to Human cord blood CD34+ cells. The series is described as follows: cells. Format: cell-based. Conditions: for proliferation inhibition: CD34 cells, cell number, FIG. 3, concentration range for which the percentage of dead cells is stated; for percentage of dead cells to total cells: human; for IC50: tested 1–1000 ng/ml. On the procedure:
Human cord blood CD34+ cells were isolated to high purity (>90%) by immunomagnetic cell sorting, aliquoted and frozen in DMSO containing medium. For cell culture setup, frozen CD34+ cells were thawed and 200 cells were seeded in 200 μl complete medium of a well of a 96 well plate. The basal cell culture medium consisted of IMDM-Medium supplemented with 20% human AB serum and antibiotics (pen/strep). The CD34+ cells were activated by addition of following cytokine cocktail: hu-SCF (100 ng/ml), hu-IL6 (10 ng/ml), hu-GM-CSF (100 U/ml), hu-TPO (25 ng/ml) and hu-EPO (5 U/ml). Cultivation was performed in incubators at 37° C., high humidity and 7% CO2.
Two different experimental setup were used: 1) addition of the inhibitor compound prior supplementation of the medium with cytokines to hit preferentially resting cells, and 2) addition of inhibitor compound 4 days after CD34 activation with cytokines to hit preferentially activated cells.
Dependent on the proliferation rate of the CD34+ cells, harvest and analysis of cell number and cytotoxicity was performed after 9–10 d cell culture. The cell number and cytotoxicity was analysed by FACS technique. The number of cells present in the well was counted by comparison with an internal bead standard. A aliquot of 10000 beads was added to each well harboring 200 μl medium volume FLUOSPHERES® polystyrene, 15 μm; Molecular Probes).
A gate, shown as rectangular region, was set onto the standard beads, a distinct number was counted, analysis was stopped and the corresponding volume of medium containing cells was calculated. […] The viable cells appear again in the middle/right position of the forward scatter (FSC) displaying low/no propidium iodide labeling. The few dead cells appear left or in the upper/left position relative to viable cell population. The FACS measurement took an aliqout count of the beads and calculated the number of cells being present within the well, whereas the cytotoxicity, the number of dead cells, was recorded in parallel during this measurement (addition of propidium iodide; final concentration 1 μg/ml). […] At the highest inhibitory and cytotoxic concentration very few cells were present anymore in the viable cell cluster and the majority of cells had been killed as evident by increased PI staining or fragmentation (panel H).
A typical example of the calculation of the number of CD34 cells and percentage of dead cells in a well is shown in FIG. 3 for two cytotoxic compounds, namely 5-fluorouracil and doxorubicine. […] The increase of the percentage of dead cells obtained from the analysis of the PI positive cell fraction (FIG. 2 panels E to H) is shown as solid line.

The structures appear in SMILES notation. pIC50: −log10 of the molar value. Where two headings read alike, the source gives them in different places.

As for `O=c1[nH]cc(F)c(=O)[nH]1` [5-fluorouracil], the proliferation inhibition result is listed as “more than 50%” and the “percentage of dead cells to total cells” value is listed as 0-25%. The pIC50 (Homo sapiens, 240 h, cytokine stimulated CD34 cells, 9–10 d culture, FACS count against bead standard, tested 0.1–100 μmol/l, read-out: IC50 value for the cell number analysis) was 6.47.
Turning to `COc1cccc2c1C(=O)c1c(O)c3c(c(O)c1C2=O)C[C@@](O)(C(=O)CO)C[C@@H]3O[C@H]1C[C@H](N)[C@H](O)[C@H](C)O1` [doxorubicine], the proliferation inhibition result was “about 80%” and the “percentage of dead cells to total cells” value was approximately 40%. Moreover, the IC50 (Homo sapiens, 240 h, cytokine stimulated CD34 cells, 9–10 d culture, FACS count against bead standard, read-out: IC50 value (cell number) from IC50 calculation program) is 0.67 ng/mL. For the same molecule, the IC50 (Homo sapiens, cytokine stimulated CD34 cells, FIG. 3 legend, read-out: IC50 value for the cell number analysis) was found to be 0.67 ng/mL.
